Results from patent publication US9278940B2, “Cyclic amines as bromodomain inhibitors” (Zenith Epigenetics Corp., priority 2012, dated 2016).
Where a name gives a salt, the structure may show the parent alone.

Columns and labels:
Brd4 bromodomain 1 = biological target: T1, Brd4 bromodomain 1 (Homo sapiens, UniProt O60885); test: Inhibition of tetra-acetylated histone H4 binding to BET bromodomain (TR-FRET); design: key: Active: Compounds with an IC50 value less than 30 μM were deemed to be active.; Not Active: Compounds with an IC50 value less than 30 μM were deemed to be active; conditions: Brd4 bromodomain 1, tetra-acetylated histone H4 peptide
T1 construct: made in house; host or cells: E. coli BL21(DE3)
Method: Proteins were cloned and overexpressed with a N-terminal 6×His tag, then purified by nickel affinity followed by size exclusion chromatography. Briefly, E. coli BL21(DE3) cells were transformed with a recombinant expression vector encoding N-terminally Nickel affinity tagged bromodomains from Brd2, Brd3, Brd4. Cell cultures were incubated at 37° C. with shaking to the appropriate density and induced overnight with IPTG. The supernatant of lysed cells was loaded onto Ni-IDA column for purification. Eluted protein is pooled, concentrated and further purified by size exclusion chromatography. Fractions representing monomeric protein were pooled, concentrated, aliquoted, and frozen at −80° C. for use in subsequent experiments.
Binding of tetra-acetylated histone H4 and BET bromodomains was confirmed by a Time Resolved Fluorescence Resonance Energy Transfer (TR-FRET) method. N-terminally His-tagged bromodomains (200 nM) and biotinylated tetra-acetylated histone H4 peptide (25-50 nM, Millipore) were incubated in the presence of Europium Cryptate-labeled streptavidin (Cisbio Cat. #610SAKLB) and XL665-labeled monoclonal anti-His antibody (Cisbio Cat. #61HISXLB) in a white 96 well microtiter plate (Greiner). For inhibition assays, serially diluted test compound was added to these reactions in a 0.2% final concentration of DMSO. Final buffer concentrations were 30 mM HEPES pH 7.4, 30 mM NaCl, 0.3 mM CHAPS, 20 mM phosphate pH 7.0, 320 mM KF, 0.08% BSA). After 2 hours incubation at room temperature, the fluorescence by FRET was measured at 665 and 620 nm by a SynergyH4 plate reader (Biotek). The binding inhibitory activity was shown by a decrease in 665 nm fluorescence relative to 620 nm. IC50 values were determined from a dose response curve.

c-myc = test: Inhibition of c-myc expression (mRNA, real-time PCR) in MV4-11 cells; type: cell-based; design: key: Active: Compounds with an IC50 value less than 30 μM were deemed to be active.; Not Active: Compounds with an IC50 value less than 30 μM were deemed to be active; conditions: Human AML MV4-11 cells, 3 hours
Method: MV4-11 cells (2.5×10^4 cells) were plated in 96 well U-bottom plates with test compound or DMSO (0.1%), and incubated for 3 hours at 37° C. Cells were then harvested by centrifugation, lysed, and mRNA was isolated using the mRNA catcher plus kit (Invitrogen). Reverse transcription of the mRNA and duplex amplification of the c-myc and cyclophilin cDNAs was performed using the RNA Ultrasense kit (Invitrogen) and a ViiA7 real-time PCR machine (Applied Biosystems). IC50 values were determined from a dose response curve.

Human AML MV-4-11 cells = test: Inhibition of cell proliferation in MV4-11 cells; type: cell-based; design: key: Active: Compounds with an IC50 value less than 30 μM are deemed to be active.; Not Active: Compounds with an IC50 value less than 30 μM are deemed to be active; conditions: 72 hours
Method: MV4-11 cells: 96-well plates were seeded with 5×10^4 cells per well of exponentially growing human AML MV-4-11 (CRL-9591) cells and immediately treated with two-fold dilutions of test compounds, ranging from 30 μM to 0.2 μM. Triplicate wells were used for each concentration, as well as a media only and three DMSO control wells. The cells and compounds were incubated at 37° C., 5% CO2 for 72 hours before adding 20 μL of the CellTiter Aqueous One Solution (Promega) to each well and incubating at 37° C., 5% CO2 for an additional 3-4 hours. The absorbance was taken at 490 nm in a spectrophotometer and the percentage of proliferation relative to DMSO-treated cells was calculated after correction from the blank well. IC50 were calculated using the GraphPad Prism software.

hIL-6 mRNA = test: Inhibition of hIL-6 mRNA transcription in LPS-stimulated U937 macrophages; type: cell-based, human; design: key: Active: Compounds with an IC50 value less than 30 μM are deemed to be active.; Not Active: Compounds with an IC50 value less than 30 μM are deemed to be active; conditions: U937 cells differentiated with PMA, 1 h pretreatment, LPS 3 h
Method: In this example, hIL-6 mRNA in tissue culture cells was quantitated to measure the transcriptional inhibition of hIL-6 when treated with a compound of the present disclosure.
A human leukemic monocyte lymphoma cell line (U937) was plated (3.2×10^4 cells per well) in a 96-well plate in […] RPMI-1640 containing 10% FBS and penicillin/streptomycin, and differentiated into macrophages for 3 days in 60 ng/mL PMA ([…]) at 37° C. in 5% CO2 prior to the addition of the compound of interest. The cells were pretreated for 1 h with the test compound prior to stimulation with 1 ug/mL lipopolysaccharide from Escherichia coli. The cells were incubated at 37-C for 3 h before the cells were harvested. At time of harvest, the spent media was removed from the cells and the cells were rinsed in 200 μL PBS. Cell lysis solution (70 μL) was added the cells in each well and incubated for 5-10 min at room temperature, to allow for complete cell lysis and detachment. mRNA was then prepared using the “mRNA Catcher PLUS plate” (Invitrogen), according to the protocol supplied. After the last wash, as much wash buffer as possible was aspirated without allowing the wells to dry. Elution buffer (E3, 70 μL) was then added to each well. mRNA was then eluted by incubating the mRNA Catcher PLUS plate with Elution Buffer for 5 min at 68° C. and then immediately placing the plate on ice.
The eluted mRNA isolated was then used in a one-step quantitative real-time PCR reaction, using components of the Ultra Sense Kit together with Applied Biosystems primer-probe mixes. Real-time PCR data was analyzed, normalizing the Ct values for hIL-6 to an internal control, prior to determining the fold induction of each unknown sample, relative to the control.

hApoA-1 mRNA = test: Up-regulation of hApoA-1 mRNA transcription in Huh7 cells; type: cell-based, human; design: key: Active: Compounds with an EC170 value less than 30 μM are deemed to be active.; Not Active: Compounds with an EC170 value less than 30 μM are deemed to be active; conditions: 48 hrs treatment, ApoA-I mRNA
Method: In this example, ApoA-I mRNA in tissue culture cells was quantitated to measure the transcriptional up-regulation of ApoA-I when treated with a compound of the present disclosure.
Huh7 cells ([…] per well) were plated in a 96-well plate using 100 μL DMEM per well, (Gibco DMEM supplemented with penicillin/streptomycin and 10% FBS), 24 h before the addition of the compound of interest. After 48 hrs treatment, the spent media was removed from the Huh-7 cells and placed on ice (for immediate use) or at −80° C. (for future use) with the “LDH cytotoxicity assay Kit II” from Abcam. The cells remaining in the plate were rinsed with 100 μL PBS.
Then 85 μL of cell lysis solution was added to each well and incubated for 5-10 minutes at room temperature, to allow for complete cell lysis and detachment. mRNA was then prepared using the “mRNA Catcher PLUS plate” from Life Technologies, according to the protocol supplied. After the last wash, as much wash buffer as possible was aspirated without allowing the wells to dry. Elution Buffer (E3, 80 μL) was then added to each well. mRNA was then eluted by incubating the mRNA Catcher PLUS plate with Elution Buffer for 5 minutes at 68° C., and then 1 minute at 4° C. Catcher plates with mRNA eluted were kept on ice for use or stored at −80° C.
The eluted mRNA isolated was then used in a one-step real-time PCR reaction, using components of the Ultra Sense Kit together with Life Technologies primer-probe mixes. Real-time PCR data was analyzed, using the Ct values, to determine the fold induction of each unknown sample, relative to the control (that is, relative to the control for each independent DMSO concentration).
Compounds with an EC170 value less than 30 μM are deemed to be active.

| FRET activity (IC50 < 30 μM) (Brd4 bromodomain 1) | c-myc activity (IC50 < 30 μM) (c-myc) | cell proliferation activity (IC50 < 30 μM) (Human AML MV-4-11 cells) | IL-6 activity (IC50 < 30 μM) (hIL-6 mRNA) | SMILES | ApoA-1 activity (EC170 < 30 μM) (hApoA-1 mRNA) |
| --- | --- | --- | --- | --- | --- |
| Active | Not Active | Not Active | Active | COc1cc(OC)c2c(=O)[nH]c(-c3cccc(N4CCN(CCS(C)(=O)=O)CC4)n3)nc2c1 [Example 6, 5,7-Dimethoxy-2-(6-(4-(2-(methylsulfonyl)ethyl)piperazin-1-yl)pyridin-2-yl)quinazazolin-4(3H)-one] | Active |
| Active | Active | Active | Active | COc1cc(F)cc2nc(-c3cccc(N4CCN(C(C)C)CC4)n3)[nH]c(=O)c12 [Example 21, 7-Fluoro-2-(6-(4-isopropylpiperazin-1-yl)pyridin-2-yl)-5-methoxyquinazolin-4(3H)-one Hydrochloride] |  |
| Active | Active | Active | Not Active | COc1cc(N2CCN(C(C)C)CC2)cc2nc(-c3cccc(N4CCN(C(C)C)CC4)n3)[nH]c(=O)c12 [Example 23, 7-(4-Isopropylpiperazin-1-yl)-2-(6-(4-isopropylpiperazin-1-yl)pyridin-2-yl)-5-methoxyquinazolin-4(3H)-one Hydrochloride] |  |
| Active |  |  | Not Active | COc1cc(-c2ccccc2)cc2nc(-c3cccc(N4CCN(C(C)C)CC4)n3)[nH]c(=O)c12 [Example 25, 2-(6-(4-Isopropylpiperazin-1-yl)pyridin-2-yl)-5-methoxy-7-phenylquinazolin-4(3H)-one] |  |

The remaining lines, values behind:

| SMILES | FRET activity (IC50 < 30 μM) (Brd4 bromodomain 1) | c-myc activity (IC50 < 30 μM) (c-myc) | cell proliferation activity (IC50 < 30 μM) (Human AML MV-4-11 cells) | IL-6 activity (IC50 < 30 μM) (hIL-6 mRNA) | ApoA-1 activity (EC170 < 30 μM) (hApoA-1 mRNA) |
| --- | --- | --- | --- | --- | --- |
| COc1cc(OC)c2c(=O)[nH]c(-c3cccc(N4CCOCC4)n3)nc2c1 [Example 16, 5,7-Dimethoxy-2-(6-morpholinopyridin-2-yl)quinazolin-4(3H)-one Hydrochloride] | Active | Not Active | Not Active | Active |  |
| COc1cc(OC)c2c(=O)[nH]c(-c3cccc(N4CCN(S(C)(=O)=O)CC4)n3)nc2c1 [Example 18, 5,7-Dimethoxy-2-(6-(4-(methylsulfonyl)piperazin-1-yl)pyridin-2-yl)quinazolin-4(3H)-one Hydrochloride] | Not Active |  |  | Not Active |  |
| COc1cc(OC)c2c(=O)[nH]c(-c3cc(OC(F)(F)F)cc(N4CCN(C(C)C)CC4)c3)nc2c1 [Example 20, 2-(3-(4-Isopropylpiperazin-1-yl)-5-(trifluoromethoxy)phenyl)-5,7-dimethoxyquinazolin-4(3H)-one] | Active | Not Active | Not Active | Active |  |
| COc1cc(OCc2ccccc2)cc2nc(-c3cccc(N4CCN(C(C)C)CC4)n3)[nH]c(=O)c12 [Example 22, 7-(Benzyloxy)-2-(6-(4-isopropylpiperazin-1-yl)pyridin-2-yl)-5-methoxyquinazolin-4(3H)-one Hydrochloride] | Active | Active | Active | Active |  |
| COc1ccc(OCc2ccccc2)c2nc(-c3cccc(N4CCN(C(C)C)CC4)c3)[nH]c(=O)c12 [Example 26, 8-(Benzyloxy)-2-(3-(4-isopropylpiperazin-1-yl)phenyl)-5-methoxyquinazolin-4(3H)-one] | Active | Not Active | Not Active | Not Active |  |
| COc1cc(OC)c2c(=O)[nH]c(-c3cccc(N4CCN(C(=O)NC(C)C)CC4)n3)nc2c1 [Example 27, 4-(6-(5,7-Dimethoxy-4-oxo-3,4-dihydroquinazolin-2-yl)pyridin-2-yl)-N-isopropylpiperazine-1-carboxamide Hydrochloride] | Active | Active | Active | Active |  |
| COc1cc(OC)c2c(=O)[nH]c(-c3cccc(N4CCN(C(C)C)CC4=O)n3)nc2c1 [Example 28, 2-(6-(4-Isopropyl-2-oxopiperazin-1-yl)pyridin-2-yl)-5,7-dimethoxyquinazolin-4(3H)-one Hydrochloride] | Not Active |  |  |  | Not Active |
| COc1cc(OC)c2c(=O)[nH]c(-c3cccc(N4CCN(C)C(=O)C4)n3)nc2c1 [Example 30, 5,7-Dimethoxy-2-(6-(4-methyl-3-oxopiperazin-1-yl)pyridin-2-yl)quinazolin-4(3H)-one] | Not Active | Not Active | Not Active | Active |  |
